By IC50 is commonly meant the midpoint of a concentration-inhibition curve.

Structures are written as SMILES. In brackets after ≈: the same amount, converted by molar mass.

The first data set concerns 3T3 cells. Kind of data set: Cell growth inhibition bioassay (sulforhodamine B).
Conditions: not given
In kind it is cell-based, mouse. The gist of the method:
(§1)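 Cells were exposed to compound alongside matched solvent controls, then stained with sulforhodamine B. Percent growth inhibition was calculated from dye absorbance against the control.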
As to `NNc1ncnc2sc3c(c12)CCCC3` [PC], the “GI50 in indicated cell line: 3T3” value is below 0.98 µg/mL.

Still in this data set, the particulars now being: 48 h, SRB.
As to `C(=Cc1ccccc1)C=NNc1ncnc2sc3c(c12)CCCC3` [II-04], the “GI50 in indicated cell line: 3T3” value was found to be 1.5 µg/mL (≈ 4.49 µM).
Still for that read-out and setting: the result for `CC(C)(C)C=NNc1ncnc2sc3c(c12)CCCC3` [II-36] reads 2.1 µg/mL (≈ 7.28 µM).
Still for that read-out and setting: next, `Fc1ccc(C=NNc2ncnc3sc4c(c23)CCCC4)cc1` [II-26]: 6.7 µg/mL (≈ 20.5 µM).

The test system of another data set is peritoneal macrophages. Put plainly: Toxicity to peritoneal macrophages (Trypan Blue count). Type of data set: cell-based, BALB/C mouse.
Conditions: not given
In the case of `C(=Cc1ccccc1)C=NNc1ncnc2sc3c(c12)CCCC3` [II-04], the IC50 worked out at 0.6 µM.
In turn, `CC(C)(C)C=NNc1ncnc2sc3c(c12)CCCC3` [II-36] gave a 50% inhibitory concentration (IC50) of 50.7 µM.
Still for that read-out and setting: the result for `Fc1ccc(C=NNc2ncnc3sc4c(c23)CCCC4)cc1` [II-26] reads 3.1 µM.

The same data set, now with this note: Table 8b; read-out: Cytotoxicity Macrophages IC50.
In the case of `NNc1ncnc2sc3c(c12)CCCC3` [PC], the IC50 stood at 7.4 µM.

In a further data set the test system is axenic amastigotes of L. amazonensis (strain MHOM/BR/76/LTB-012).
Test: not given
Conditions: read-out: L. amazonensis IC50; Table 8b.
Regarding `C(=Cc1ccccc1)C=NNc1ncnc2sc3c(c12)CCCC3` [II-04], the IC50 came to 5.5 µM.
As to `CC(C)(C)C=NNc1ncnc2sc3c(c12)CCCC3` [II-36], the IC50 was determined as 32.5 µM.
On the same count and under the same terms, the result for `Fc1ccc(C=NNc2ncnc3sc4c(c23)CCCC4)cc1` [II-26] reads 3.2 µM.
On the same count and under the same terms, the result for `NNc1ncnc2sc3c(c12)CCCC3` [PC] reads 12 µM.

The subject of the next data set is VERO cells. Kind of data set: Cell growth inhibition bioassay (sulforhodamine B). In kind it is cell-based, African Green Monkey. Conditions: 48 h, SRB. The method in brief: as §1
Regarding `C(=Cc1ccccc1)C=NNc1ncnc2sc3c(c12)CCCC3` [II-04], the “GI50 in indicated cell line: VERO” value came to 0.6 µg/mL (≈ 1.79 µM).
Still for that read-out and setting: the result for `CC(C)(C)C=NNc1ncnc2sc3c(c12)CCCC3` [II-36] reads 9.7 µg/mL (≈ 33.6 µM); that for `Fc1ccc(C=NNc2ncnc3sc4c(c23)CCCC4)cc1` [II-26], 4.2 µg/mL (≈ 12.9 µM).
The same measure, in the same setting: next, `NNc1ncnc2sc3c(c12)CCCC3` [PC]: 2.5 µg/mL (≈ 11.3 µM).

In a further data set the test system is DU145 cells. Kind of data set: Cell growth inhibition bioassay (sulforhodamine B). Conditions: 48 h, SRB. Type of data set: cell-based, human. The gist of the method:
(§2)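 SRB colorimetric read-out; % growth inhibition vs solvent control. Human lines: MCF-7 (breast adenocarcinoma), DU145 (prostate carcinoma), PC3 (prostate adenocarcinoma), H460 (large cell lung cancer).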
On to `C(=Cc1ccccc1)C=NNc1ncnc2sc3c(c12)CCCC3` [II-04], for which the “GI50 in indicated cell line: DU145” value came to 1.8 µg/mL (≈ 5.38 µM).
Same read-out and setting: next, `CC(C)(C)C=NNc1ncnc2sc3c(c12)CCCC3` [II-36]: 7.2 µg/mL (≈ 25 µM); `Fc1ccc(C=NNc2ncnc3sc4c(c23)CCCC4)cc1` [II-26]: 4.5 µg/mL (≈ 13.8 µM).
Still for that read-out and setting: the result for `NNc1ncnc2sc3c(c12)CCCC3` [PC] reads 3.1 µg/mL (≈ 14.1 µM).

The next data set has as its system HT-29 cells. Kind of data set: Cell growth inhibition bioassay (sulforhodamine B). Type of data set: cell-based, human. The settings on record: 48 h, SRB. The method in brief: as §1
As for `C(=Cc1ccccc1)C=NNc1ncnc2sc3c(c12)CCCC3` [II-04], the “GI50 in indicated cell line: HT-29” value came to 2.7 µg/mL (≈ 8.07 µM).
On to `CC(C)(C)C=NNc1ncnc2sc3c(c12)CCCC3` [II-36], for which the “GI50 in indicated cell line: HT-29” value was determined as 9.5 µg/mL (≈ 32.9 µM).
In the case of `Fc1ccc(C=NNc2ncnc3sc4c(c23)CCCC4)cc1` [II-26], the “GI50 in indicated cell line: HT-29” value is 3.4 µg/mL (≈ 10.4 µM).
The same measure, in the same setting: next, `NNc1ncnc2sc3c(c12)CCCC3` [PC]: 4.6 µg/mL (≈ 20.9 µM).

Another data set concerns H460 cells. Put plainly: Cell growth inhibition bioassay (sulforhodamine B). Type of data set: cell-based, human. Conditions: 48 h, SRB. The method in brief: as §1
On to `C(=Cc1ccccc1)C=NNc1ncnc2sc3c(c12)CCCC3` [II-04], for which the “GI50 in indicated cell line: H460” value stood at 0.7 µg/mL (≈ 2.09 µM).
Consider `CC(C)(C)C=NNc1ncnc2sc3c(c12)CCCC3` [II-36], for which the “GI50 in indicated cell line: H460” value stood at 7.1 µg/mL (≈ 24.6 µM).
On the same count and under the same terms, the result for `Fc1ccc(C=NNc2ncnc3sc4c(c23)CCCC4)cc1` [II-26] reads 3.1 µg/mL (≈ 9.5 µM); that for `NNc1ncnc2sc3c(c12)CCCC3` [PC], 2.1 µg/mL (≈ 9.53 µM).

The next data set relates to K562 cells. Kind of data set: Cell growth inhibition bioassay (sulforhodamine B). Type of data set: cell-based, human. Conditions: 48 h, SRB. The gist of the method: as §1
In the case of `C(=Cc1ccccc1)C=NNc1ncnc2sc3c(c12)CCCC3` [II-04], the “GI50 in indicated cell line: K562” value worked out at 0.5 µg/mL (≈ 1.5 µM).
The same measure, in the same setting: next, `CC(C)(C)C=NNc1ncnc2sc3c(c12)CCCC3` [II-36]: 7.9 µg/mL (≈ 27.4 µM); `Fc1ccc(C=NNc2ncnc3sc4c(c23)CCCC4)cc1` [II-26]: 2.9 µg/mL (≈ 8.88 µM).
For `NNc1ncnc2sc3c(c12)CCCC3` [PC], the “GI50 in indicated cell line: K562” value was found to be 2.4 µg/mL (≈ 10.9 µM).

For the next data set, the system named is M-14 cells. Kind of data set: Cell growth inhibition bioassay (sulforhodamine B). In kind it is cell-based, human. The settings on record: 48 h, SRB. The gist of the method:
as §1
Regarding `C(=Cc1ccccc1)C=NNc1ncnc2sc3c(c12)CCCC3` [II-04], the “GI50 in indicated cell line: M-14” value was determined as 1.6 µg/mL (≈ 4.78 µM).
Still for that read-out and setting: the result for `CC(C)(C)C=NNc1ncnc2sc3c(c12)CCCC3` [II-36] reads 9.4 µg/mL (≈ 32.6 µM); that for `Fc1ccc(C=NNc2ncnc3sc4c(c23)CCCC4)cc1` [II-26], 5.7 µg/mL (≈ 17.5 µM).
On the same count and under the same terms, the result for `NNc1ncnc2sc3c(c12)CCCC3` [PC] reads 5.4 µg/mL (≈ 24.5 µM).

A further data set relates to MCF-7 cells. Kind of data set: Cell growth inhibition bioassay (sulforhodamine B). In kind it is cell-based, human. The settings on record: 48 h, SRB. The gist of the method:
as §2
Take `C(=Cc1ccccc1)C=NNc1ncnc2sc3c(c12)CCCC3` [II-04]: the “GI50 in indicated cell line: MCF-7” value is 0.7 µg/mL (≈ 2.09 µM).
Still for that read-out and setting: the result for `CC(C)(C)C=NNc1ncnc2sc3c(c12)CCCC3` [II-36] reads 7.5 µg/mL (≈ 26 µM).
For the molecule `Fc1ccc(C=NNc2ncnc3sc4c(c23)CCCC4)cc1` [II-26], the “GI50 in indicated cell line: MCF-7” value came out at 2.4 µg/mL (≈ 7.35 µM).
On the same count and under the same terms, next, `NNc1ncnc2sc3c(c12)CCCC3` [PC]: 2.0 µg/mL (≈ 9.08 µM).

A further data set has as its system VERO cell. Kind of data set: Cytotoxicity VERO cell (Table 6). The settings on record: Table 6.
Turning to `C(=Cc1ccccc1)C=NNc1ncnc2sc3c(c12)CCCC3` [II-04], the “Cytotoxicity VERO cell” value amounted to 1.2 µg/mL.
Consider `CC(C)(C)C=NNc1ncnc2sc3c(c12)CCCC3` [II-36], for which the “Cytotoxicity VERO cell” value was determined as 29.6 µg/mL.
In the case of `Fc1ccc(C=NNc2ncnc3sc4c(c23)CCCC4)cc1` [II-26], the “Cytotoxicity VERO cell” value came out at 12.8 µg/mL.
The same measure, in the same setting: the result for `NNc1ncnc2sc3c(c12)CCCC3` [PC] reads 26.9 µg/mL.

The target of the next data set is Trypanosoma cruzi (Tulahuen C4). Put plainly: In vitro anti-T. cruzi activity (β-galactosidase CPRG colorimetric assay in VERO monolayer). Type of data set: cell-based. The settings on record: Lab A.
Turning to `C(=Cc1ccccc1)C=NNc1ncnc2sc3c(c12)CCCC3` [II-04], the “T. cruzi IC50 Lab A” value amounted to 0.4 µg/mL.
Same read-out and setting: next, `CC(C)(C)C=NNc1ncnc2sc3c(c12)CCCC3` [II-36]: 5.3 µg/mL; `Fc1ccc(C=NNc2ncnc3sc4c(c23)CCCC4)cc1` [II-26]: 1.9 µg/mL; `NNc1ncnc2sc3c(c12)CCCC3` [PC]: 4.1 µg/mL.

The data set is the same for the next values; noted with them: Lab B.
On to `C(=Cc1ccccc1)C=NNc1ncnc2sc3c(c12)CCCC3` [II-04], for which the “T. cruzi IC50 Lab B” value was 0.5 µg/mL.
On the same count and under the same terms, the result for `Fc1ccc(C=NNc2ncnc3sc4c(c23)CCCC4)cc1` [II-26] reads 6.0 µg/mL; that for `NNc1ncnc2sc3c(c12)CCCC3` [PC], 4.7 µg/mL.

The test system of another data set is M. tuberculosis H37Rv. Kind of data set: Conventional aerobic (MABA) culture assay, luminescence MIC. Type of data set: cell-based, Mycobacterium tuberculosis. Conditions: aerobic, 7 days, H37Rv.
As for `C(=Cc1ccccc1)C=NNc1ncnc2sc3c(c12)CCCC3` [II-04], the “MIC MABA” value was 11.7 µg/mL (≈ 35 µM).
Regarding `CC(C)(C)C=NNc1ncnc2sc3c(c12)CCCC3` [II-36], the “MIC MABA” value stood at 86.3 µg/mL (≈ 299 µM).
Same read-out and setting: the result for `Fc1ccc(C=NNc2ncnc3sc4c(c23)CCCC4)cc1` [II-26] reads 23.2 µg/mL (≈ 71.1 µM).
As to `NNc1ncnc2sc3c(c12)CCCC3` [PC], the “MIC MABA” value stood at 82.5 µg/mL (≈ 374 µM).

Another data set deals with VERO cells. Put plainly: Cytotoxicity on VERO cells (MTT), anti-T. cruzi study. The settings on record: Lab B.
With `C(=Cc1ccccc1)C=NNc1ncnc2sc3c(c12)CCCC3` [II-04], the “Cytotoxicity VERO Lab B” value was 7.0.
On to `Fc1ccc(C=NNc2ncnc3sc4c(c23)CCCC4)cc1` [II-26], for which the “Cytotoxicity VERO Lab B” value was 6.0.
Same read-out and setting: the result for `NNc1ncnc2sc3c(c12)CCCC3` [PC] reads 9.0.

Source of the values: patent publication US9061984B2 (University of Louisville Research Foundation, Inc., priority 2008, dated 2015).
